According to patent publication US4221793A, “N,N'-Disubstituted piperazine derivative” (priority 1977, dated 1980):
Values after ≈ are worked out from the molar mass of the structure shown. Where two headings read alike, the source gives them in different places.

Columns and labels:
[1] = test system: mice; test: Tetrabenazine catalepsy test on mice, influence on the duration of catalepsy; type: in vivo, mouse; conditions: for Effect in tetrabenazine catalepsy test compared with imipramine: in words
Method: (§1) The pharmacological activity of the substance according to the invention was investigated in the tetrabenazine catalepsy test and in the reserpine antagonism test at the mouse.
Mice in groups of 10 animals each were given 15 mg/kg of tetrabenazine i.p. 30 minutes after administration of the test substance. The onset of a cataleptic condition is assessed on a 2-step round cork on to which the animals are placed so that they touch the bottom step with their head and forepaws and the upper step with their hind paws. Such a position is corrected immediately by a normal animal. For assessment, the reaction of the animals is observed every 60 seconds. The inhibition of catatonia is calculated in percentage values in relation to a control group.

[2] = test system: mice; test: Reserpine antagonism test on mice; type: in vivo, mouse; conditions: in words
Excerpt: as §1

[3] = test system: isolated guinea-pig heart; test: Activity on the isolated guinea-pig heart (Langendorff): coronary circulation and contraction level; conditions: for Effect on coronary vessels / circulation / Influence on contraction level of the isolated heart: in words
[4] = test system: isolated guinea-pig intestines; test: Spasmolytic activity on isolated guinea-pig intestines (Magnus); conditions: for IC50: Cavia porcellus
Method: The compound according to the invention has also been examined for its influenece on coronary circulation and on the heart mechanogram in isolated guinea-pig hearts according to the method of Langendorff (Langendorff, O., Pfluegers Arch. 61 (1895), 219) as well as for its spasmolytic activity on isolated guinea-pig intestines according to the method of Magnus (Magnus, R., Pflugers Arch. 102 (1904), 123). In this latter case, the spasmolytic activity was determined in relation to 0.2 μg/ml of histamine and 100 μg/ml of barium chloride.

[5] = test system: mice; conditions: mouse, in vivo, po
[6] = Acute toxicity test on mice (LD50); conditions: mouse, in vivo
[7] = test system: mice; test: Acute toxicity test on mice (LD50); conditions: in words
[8] = Side-effect activities (cardiotoxic, central nervous system, sedation, vegetative nervous system); conditions: therapeutically relevant doses
[9] = against 0.2 μg/ml histamine, read-out: Spasmolytic activity as ED50 relative to histamine
[10] = against 100 μg/ml barium chloride, read-out: Spasmolytic activity as ED50 relative to BaCl2

In the case of `COc1ccc2oc(C(=O)N3CCN(Cc4ccccc4)CC3)cc2c1` [According to the invention, N-(5-Methoxybenzofuran-2-ylcarbonyl)-N'-benzylpiperazine], the “Change of duration of catalepsy relative to control” value ([1]; 20 mg/kg p.o., 20 min post appl., n=40) is reported as -62 ± 26%, the “Effect in tetrabenazine catalepsy test compared with imipramine” value [1] is reported as “substantially stronger effect than the comparison substance” and the “Effect in tetrabenazine catalepsy test compared with imipramine” value ([1]; listed as substance according to the invention) is reported as “substantially stronger effect than the commercially available comparison substance, imipramine”. For the same molecule, the “Activity in reserpine antagonism test compared with comparison substance” value [2] was “substantially equal in activity compared with the comparison substance”, the activation at 0.05 mg ([3]; Cavia porcellus, dose 50 μg, read-out: Change in coronary circulation) was 39% and the inhibition at 0.05 mg ([3]; Cavia porcellus, dose 50 μg, read-out: Influence on contraction level) was 0%. For the same molecule, the “Effect on coronary vessels / circulation” value [3] was “causes a dilation of the coronary vessels”, the “Influence on contraction level of the isolated heart” value [3] was “does not influence the contraction level of the isolated heart” and the IC50 [4, 9] was 5 to 10 µg/mL (≈ 14.3 to 28.5 µM). The IC50 [4, 10] was 5 to 10 µg/mL (≈ 14.3 to 28.5 µM), the Spasmolytic activity ([4]; in words) was “only small” and the “Influence on the peripheral vegetative nervous system” value ([4]; in words, concluded from spasmolytic activity) was “influenced only slightly, if at all”. For the same molecule, the “Compatibility (tolerability) compared with comparison preparation” value [5] was “more than ten times more compatible than the comparison preparation”, the LD50 ([6]; ip) was 548 mg/kg and the LD50 ([6]; po) was greater than 4000 mg/kg. The “Toxicity compared with imipramine” value [7] was “considerably lower toxicity”, the Cardiotoxic activity [8] was “has not shown in therapeutically relevant doses any cardiotoxic” and the “Central nervous system stimulation activity” value [8] was “has not shown”. The “Influence on the vegetative nervous system” value [8] was “has not shown” and the Sedation activity [8] was “has not shown”.
In the case of `CN(C)CCCN1c2ccccc2CCc2ccccc21` [Imipramine], the activation at 0.01 mg ([3]; Cavia porcellus, dose 10 μg, first value of pair, read-out: Change in coronary circulation (initial brief increase)) is reported as 19%, the inhibition at 0.01 mg ([3]; Cavia porcellus, dose 10 μg, read-out: Influence on contraction level) is reported as 25% and the inhibition at 0.01 mg ([3]; Cavia porcellus, dose 10 μg, second value of pair, read-out: Change in coronary circulation (subsequent constriction)) is reported as 18%. The activation at 0.02 mg ([3]; Cavia porcellus, dose 20 μg, first value of pair, read-out: Change in coronary circulation (initial brief increase)) was 28%, the inhibition at 0.02 mg ([3]; Cavia porcellus, dose 20 μg, read-out: Influence on contraction level) was 25% and the inhibition at 0.02 mg ([3]; Cavia porcellus, dose 20 μg, second value of pair, read-out: Change in coronary circulation (subsequent constriction)) was 29%. For the same molecule, the activation at 0.03 mg ([3]; Cavia porcellus, dose 30 μg, first value of pair, read-out: Change in coronary circulation (initial brief increase)) was 84%, the inhibition at 0.03 mg ([3]; Cavia porcellus, dose 30 μg, read-out: Influence on contraction level) was 50% and the inhibition at 0.03 mg ([3]; Cavia porcellus, dose 30 μg, second value of pair, read-out: Change in coronary circulation (subsequent constriction)) was 22%. The “Effect on coronary vessels / circulation” value [3] was “causes initially a brief increase in circulation, this then changes to a constriction”, the “Influence on contraction level of the isolated heart” value [3] was “heart damage which is shown by the reduction of the heart contraction” and the IC50 [4, 9] was 0.001 µg/mL (≈ 0.00357 µM). The IC50 [4, 10] was 0.1 to 1 µg/mL (≈ 0.357 to 3.57 µM).
